What was measured:
[1] = system: tomato spotted wilt virus; assay: Induced resistance of tobacco to tomato spotted wilt virus infection; assay type: in vivo, Nicotiana benthamiana; details: for viral protein content: leaves 3 days after inoculation, Western blot grey scale
Experimental: Tomato spotted wilt virus was obtained from Yunnan Province, China. The initial virus source was stored in a refrigerator at −80° C., and inoculated on the leaves of Nicotiana benthamiana using friction inoculation method to activate the virus. The virus plasmids were extracted and transformed with competent cells of Escherichia coli. The competent cells were coated on a resistant plate for culture. Single colonies were picked for PCR screening, and positive colonies were selected for sequencing and subsequent plasmid extraction. The plasmids with normal sequencing results were added to competent cells of Agrobacterium sp, and Agrobacterium was transformated by electroporation. A solution of the transformed Agrobacterium was coated on the corresponding resistant screening plate, and cultured at 28° C. (+1° C.) for 48 h. Single colonies of the Agrobacterium on transformation plate were picked, placed in 5 mL of LB medium with the corresponding resistance, and cultured overnight at 28° C., 180 rpm. The bacterial cells were collected by centrifugation at 6,000 rpm for 2 min, suspended with a treatment solution (10 mM MgCl2, 10 mM MES, and 10 μM Acetosyringone) until the OD600 value of the suspension was 0.5. The suspension was treated at 28° C. in the dark for 3 hours for later use. 2-amino-3-phenylbutyric acid was dissolved in distilled water and then gradiently diluted with distilled water into solutions of 0 nM, 0.1 nM, 1 nM, and 10 nM. Nicotiana benthamiana seeds were planted in small pots and incubated at 22° C. (+1° C.), 12 h/12 h light for 5 weeks. Healthy tobacco plants (preferably with 8-10 leaves) were selected and treated with the 2-amino-3-phenylbutyric acid solutions of the above concentrations by spraying on the stems and leaves, and repeated the treatment at 24-hour intervals for a total of two treatments. After 24 hours, a uniform concentration of Agrobacterium solution was extracted with a 1 mL syringe, the injection port of the syringe was pressed directly on the small hole on the back of the tobacco leaf, and the bacterial solution was slowly pushed in order to infiltrate soak the entire leaf. The infiltrated tobacco was moved to an environment of 24° C. (+1° C.), 12 h/12 h light for incubation. After 3 days, microscopic observation was performed and recorded. At the same time, the samples were taken, and the gray scale of protein bands was analyzed by Western blot combined with Image J software to determine the relative protein content of virus in leaves. After 15 days, the disease of tobacco leaves was observed and the disease index was recorded with reference to “grade and investigation method of tobacco diseases and insect pests” (GB/T 23222-2008) with the following formulas: […]
Grading standard of Tomato spotted wilt virus disease (grading and investigation were conducted per plant): • Grade 0: the whole plant is disease free; • Grade 1: heart leaves have clear veins or slightly mosaic, and there is no obvious dwarfing of diseased plants; • Grade 3: one-third of the leaves are mosaic without deformation, or the diseased plant is dwarfed to three quarters or more of the normal plant height; • Grade 5: one-third to one-half of the leaves are mosaic, or a few leaves are deformed, or the main veins become black, or the diseased plant is dwarfed to two-thirds to three-quarters of the normal plant height; • Grade 7: one-half to two-thirds of the leaves are mosaic or deformed, or a few main and lateral veins become necrotic, or the diseased plant is dwarfed to one-half to two-thirds of the normal plant height; • Grade 9: the leaves of the whole plant are mosaic, severely deformed or necrotic, or the diseased plant is dwarfed to one-half or […] of the normal plant height.

[2] = system: Pseudomonas syringae PstDC3000; assay: Induced resistance of Arabidopsis thaliana to Pseudomonas syringae infection; assay type: in vivo; details: for disease index / number of bacteria in the leaves, CFU (mg) / number of bacteria in the leaves, CFU/mg: 3 days after inoculation; for decrease of the number of bacteria per milligram of leaves: compared with blank control
Experimental: 2-amino-3-phenylbutyric acid was dissolved in sterile water and then gradiently diluted with sterile water into solutions of 100 nM, 1,000 nM, and 10,000 nM, and a blank control was set up, while 0.02% Tween 20 was added as surfactant. The Pseudomonas syringae PstDC3000 was coated on the LB plate and cultured at 28° C. for 48 hours. Single colonies were picked and inoculated into a 50 mL centrifuge tube containing 2 mL of medium, cultured at 28° C. on a shaker at 250 rpm. The change of OD600 value of the bacterial solution was monitored every 1-2 hours until it reached 0.8, and the culture of the bacteria was stopped. 1 mL of the bacterial solution was transferred into a 1.5 mL sterile centrifuge tube and centrifuged at 8,000 rpm for 2 min to collect the precipitate. The supernatant was removed, and the precipitate was washed 3 times with 10 mM magnesium chloride and centrifuged, and finally the PstDC3000 was resuspended in 10 mM magnesium chloride to reach an OD600 value of […] for later use. The Arabidopsis thaliana seeds were soaked in 75% alcohol for 3 min, then washed 4 times with sterile water and planted in a Petri dish containing ½ MS medium. Twelve seeds were planted in each petri dish, and ½ MS petri dishes with seeds were vernalized at 4° C. for 3 d to break dormancy and then placed in a culture room at 22° C. with a light intensity of 100 μE m^−2s^−1 (16 h light/8 h darkness). When the seedlings grew for 2 weeks, the 2-amino-3-phenylbutyric acid solutions at different concentrations were slowly poured into the petri dish until the whole Arabidopsis thaliana seedlings were submerged, and kept for 2-3 minutes, and then the treatment solution was poured out of the petri dish. The treatment was performed once every 24 h for a total of 2 treatments. 24 hours after the second treatment, the PstDC3000 suspension (OD600=0.01) was inoculated onto the leaves of Arabidopsis thaliana by the same submerge method. After inoculation, the petri dish was closed with a medical breathable adhesive tape and placed in the culture room for further culture. After 3 days, the number of bacteria in different treatments was determined and the incidence of Arabidopsis thaliana was observed. The disease index was calculated in the same manner as that in Example 2.
Grading standard of Disease injury caused by PstDC3000 (per leave): • Grade 0: No diseased patches on the leaves; • Grade 1: The area of diseased spots accounts for 0%-10% of the whole leaf; • Grade 2: The area of diseased spots accounts for 10%-25% of the whole leaf; • Grade 3: The area of diseased spots accounts for 25%-50% of the whole leaf; • Grade 4: The area of diseased spots accounts for 50%-75% of the whole leaf; • Grade 5: The area of diseased spots accounts for 75%-100% of the whole leaf.

[3] = 0.1 nM spray, 15 days after inoculation
[4] = 1 nM spray, 15 days after inoculation
[5] = each treatment in the range 0.1-10 nM

SMILES	relative immunization effect (%) ([1]; 0.1 nM)	disease index [1, 3]	viral protein content ([1]; 0.1 nM)	relative immunization effect (%) ([1]; 1 nM)	disease index [1, 4]	viral protein content ([1]; 1 nM)	relative immunization effect (%) ([1]; 10 nM)	disease index [1, 5]	relative immune effect [1, 5]	decrease of the disease index ([2]; 100 nM)	disease index ([2]; 100 nM)	decrease of the number of bacteria per milligram of leaves ([2]; 100 nM)	decrease of the disease index ([2]; 1,000 nM)	disease index ([2]; 1,000 nM)	decrease of the number of bacteria per milligram of leaves ([2]; 1,000 nM)	decrease of the disease index ([2]; 10,000 nM)	number of the bacteria per mg leaves ([2]; 10,000 nM)	decrease of the number of bacteria per milligram of leaves ([2]; 10,000 nM)	also measured
CC(CCCN)C(N)C(=O)O (stereo not drawn) [2,6-diamino-3-methylhexanoic acid]	53.08%	42.64 ± 1.25 b	0.41 ± 0.005 b	63.72%	32.97 ± 1.26 c	0.23 ± 0.002 c	70.94%	lower than 50	≥ 50%	50.96%	42.01 ± 1.36 b	73.93%	56.15%	37.57 ± 0.24 c	84.15%	76.82%	1.58×10^5 per mg leaves	95.11%	number of bacteria in the leaves, CFU (mg) ([2]; 100 nM): 8.42 × 10^5 CFU (mg); number of bacteria in the leaves, CFU (mg) ([2]; 1,000 nM): 5.12 × 10^5 CFU (mg); number of bacteria in the leaves, CFU (mg) ([2]; 10,000 nM): 1.58 × 10^5 CFU (mg)
CC(c1ccccc1)C(N)C(=O)O (stereo not drawn) [2-amino-3-phenylbutyric acid]	35.77%	48.77 ± 0.87 b	0.33 ± 0.003 b	60.98%	29.63 ± 1.51 c	0.14 ± 0.008 c	69.23%	lower than 50	≥ 35%	52.57%	38.04 ± 1.04 b	92.05%	58.45%	33.33 ± 4.17 c	92.94%	81.82%	1.34×10^5 per mg leaves	95.56%	number of bacteria in the leaves, CFU/mg ([2]; 100 nM): 2.40 × 10^5 CFU/mg; number of bacteria in the leaves, CFU/mg ([2]; 1,000 nM): 2.13 × 10^5 CFU/mg; number of bacteria in the leaves, CFU/mg ([2]; 10,000 nM): 1.34 × 10^5 CFU/mg
